Measured values as given in patent US10426800B2, “Adipose tissue-derived stem cells for veterinary use” (CELL4VET CORPORATION, priority 2008, dated 2019).

Assays:
Type in all cases: cell-based, rat
[1] = system: ADSC; assay: EdU labeling of ADSC in vitro
Procedure: FIG. 9 depicts dosage effect. EdU was added to ADSC at 0, 10, 20, and 50 μM. Cellular location was identified by DAPI staining of the nucleus (which would be blue if color photos were used). EdU was detected by Alexa 594 (which would be red if color photos were used).
FIG. 10 show the results of a time-course study. ADSC were labeled with 10 μM EdU and then split at 1 day, 4 days, 7 days, 14 days, and 21 days. […] Higher magnification (1000×) of cells at day 21 is shown in panel C.
ADSCs were grown on glass coverslips in DMEM supplemented with 10% bovine calf serum, penicillin, and streptomycin. For dosage effect, EdU was added to the culture media at 0, 10, 20 and 50 μM. Twenty-four hours later, cells were washed with PBS followed by addition of regular culture media (FIG. 9). For time-course study, ADSC were labeled with 10 μM EdU and then split at 1 day, 4 days, 7 days, 14 days and 21 days (FIG. 10).
After methanol fixation, cells were washed twice with PBS and then incubated in 3% BSA in PBS followed by 0.5% Triton® X-100 in PBS for 20 minutes at room temperature. The cells were then incubated with freshly made Click-it reaction cocktail (Invitrogen) for 30 minutes at room temperature in the dark. Cells were counterstained with DAPI, mounted in standard mounting media and imaged by fluorescence microscopy.

[2] = system: RADSC-1 cells; assay: Effect of FGFR inhibitor on ADSC endothelial differentiation (LDL-uptake); settings: EGM2 or FGF2/vitamin C-supplemented EBM2, in the presence of PD173074
Procedure: RADSC-1 cells were grown in EGM2 or EBM2 supplemented with FGF2 and vitamin C in the presence or absence of FGFR inhibitor PD173074. The cells were then assayed for LDL-uptake. […] RADSC-1 cells were also grown in VEGF/vitamin C-supplemented EBM2 for the purpose of excluding the involvement of VEGF signaling, as PD173074 is known to have a weak inhibitory effect on VEGF receptor. Experiments were repeated 3 times.

[3] = system: RADSC-1 cells; assay: LDL-uptake of ADSC grown in subtraction or addition EGM2/EBM2 media; settings: for ADSC's LDL-uptake ability on omission of the factor from EGM2: one week in subtracted EGM2 medium; for ADSC's LDL-uptake ability in EBM2 supplemented with the factor: one week in addition medium
Source text: Each partially supplemented EGM2 is indicated by the omitted factor; for example, “-FGF” denotes EGM2 without FGF2. Experiments were repeated 3 times.
Experiments were repeated 3 times.
EGM2 medium is supplied by the manufacturer in the form of a basal medium (EBM2) and individual vials of supplemental factors. […] Specifically, we prepared “subtraction” EGM2 media by omitting one supplemental factor at a time.

Molecule | ADSC's LDL-uptake ability on omission of the factor from EGM2 [3] | further results
C#Cc1cn([C@H]2C[C@H](O)[C@@H](CO)O2)c(=O)[nH]c1=O [EdU, 5-ethynyl-2-deoxyuridine] |  | EdU signal in the positively labeled cells ([1]; 10 μM EdU, 1 to 21 days, P<0.01): decreased with time; cells EdU-labeled ([1]; EdU 10, 20, 50 μM, regardless of concentration): approximately 50%
CCN(CC)CCCCNc1ncc2cc(-c3cc(OC)cc(OC)c3)c(NC(=O)NC(C)(C)C)nc2n1 [PD173074] |  | acquisition of LDL-uptake ability [2]: unable to do so
C[C@]12CCC(=O)C=C1CC[C@@H]1[C@@H]2[C@@H](O)C[C@@]2(C)[C@H]1CC[C@]2(O)C(=O)CO [hydrocortisone] | essentially no effect | 
O=C1O[C@H]([C@@H](O)CO)C(O)=C1O [vitamin C] | greatly diminished | ADSC's LDL-uptake ability in EBM2 supplemented with the factor [3]: still somewhat effective, but at a much reduced level
EGF: growth factor, supplemental factor of EGM2 medium | essentially no effect | 
FGF2: growth factor, supplemental factor of EGM2 medium | greatly diminished | ADSC's LDL-uptake ability in EBM2 supplemented with the factor [3]: still effective, albeit at a reduced level
VEGF | essentially no effect | 
heparin | essentially no effect | 
